From patent publication US4434101A, “Inhibitors of SRS-synthesis” (Hoffmann-La Roche Inc., priority 1981, dated 1984)

Test system: SRS-A synthesis in rat peritoneal cells
Test: Inhibition of the In Vitro Synthesis of SRS-A in Rat Peritoneal Cells
Assay type: cell-based, rat (male Sprague-Dawley)
Conditions: for inhibition at 10 µM: mean percent inhibition of ionophore A23187-induced SRS-A synthesis, 10 min preincubation at 37° C., p<0.001, SRS-A quantitated by guinea pig ileum bioassay, read-out: % Inhibition at 10μ M; for IC50: from plot of mean percent inhibition versus drug concentration, ionophore A23187-induced SRS-A synthesis
Excerpt: Inhibition of the In Vitro Synthesis of SRS-A in Rat Peritoneal Cells
To study the effect of drugs on SRS-A synthesis in rat peritoneal cells, these cells (including mast cells, monocytes, eosinophils and neutrophils)were isolated from male Sprague-Dawley rats (Charles River Laboratories) weighing 180-220 g by the lavage procedure described by Herzig, D. G. and Dusner, E. J. Journal of Pharmacology and Experimental Therapeutics, 194, 457-460 (1975) with the exception that Hanks balanced salt solution used in these experiments was adjusted to pH 6.9 with 5% (V/V) of 0.1 M aqueous phosphate buffer and contained 50 mg/ml sodium heparin. After removal from the peritoneal cavity of rats, the cells were subsequently isolated by centrifugation at 400×gravity for 10 minutes at 4° C. and resuspended to a concentration of about 2,000,000 cells per ml in Hanks buffer.
Samples for evaluation were prepared by adding various concentrations of test drugs to 2 ml aliquots of the resuspended cells in Hanks buffer. The 2 ml samples used for control contained 2 ml aliquots of resuspended cells in Hanks buffer without drugs. All of the above samples (2 ml final volume) were preincubated at 37° C. for 10 minutes in the presence of varying concentrations of test drug prior to challenge with […] ionophore A23187. This ionophore is disclosed in Burka and Flower, Br. J. Pharmacology 65: 35-41 (1979). Antibiotic A23187 was used as a probe for the study of calcium and function in biological systems. After ionophore challenge, SRS-A was synthesized in the samples by the cells for 10 minutes (at 37° C.) after which this synthesis was terminated by placing the samples in a boiling water bath for 10 minutes followed by centrifugation at 2,000×g (10 minutes) at 4° C. to remove coagulated protein and cellular debris. The SRS-A present in the resulting supernatants was quantitated by a bioassay using a guinea pig ileum as described in Orange, and Austen, Adv. Immunol, 10: 105-144 (1969). For this bioassay, a 1.5 cm segment of ileum was removed from animals weighing 300 to 400 g and resuspended in an organ bath containing 10 ml of Tyrodes solution with 10^-6 M atropine sulfate and 10^-6 M pyrilamine maleate. The bath was maintained at 37° C. and aereated with a mixture of 95% O2 and 5% CO2. The concentration of SRS-A in the experimental samples was determined by a comparison of isotonic contraction responses elicited by the samples with those obtained with varying amounts of an SRS-A standard solution prepared from chopped guinea pig lung as disclosed in Hitchcock, M. J. Pharmacol. Exp. Ther. 207: 630-640 (1978) and quantitated by the procedures of Orange, R. R. and Austen, K. F. Adv. Immunol. 10: 105-144 (1969) against histamine (1 unit of SRS-A being that amount which gives a contractie response similar to that of […] of histamine). In the absence of drug, the ionophore A23187-induced SRS-A synthesis varied between 40 to 50 units of SRS-A per 10^6 cells. In the presence of increasing concentrations of test drug, there was a concentration-related decrease in SRS-A synthesis.
The mean percent inhibition [formula] at each concentration of the various test drugs was calculated. The concentration of test drug which inhibits the synthesis of SRS-A by 50% (IC50) was determined for each test drug from a plot of the mean percent inhibition versus drug concentration. The difference of units of SRS-A in the test sample used in the fraction given above was obtained by subtracting the units of SRS-A in the control from the actual measurement of the units of SRS-A in the sample.

IC50 | SMILES | inhibition at 10 µM
< 10 µM | CCCCCCCCCCC/C=C\C(C)(C)/C=C\CCCC(=O)O [(Z,Z)-7,7-dimethyl-5,8-eicosadienoic acid] | 100%
< 10 µM | CCCCCCCC/C=C\C/C=C\C(C)(C)/C=C\CCCC(=O)O [(all Z)-7,7-dimethyl-5,8,11-eicosatrienoic acid] | 100%
1 to 3 µM | CCCCC/C=C\C/C=C\C/C=C\C(C)(C)/C=C\CCCC(=O)O [(all-Z)-7,7-dimethyleicosa-5,8,11,14-tetraenoic acid] | 100%
